pIC50: −log10 of the molar value. Like-named read-outs stand apart in the source and are kept apart here.
System: T47D pAKT (S473), PI3Kα H1047R mutation present
Assay: HTRF pAKT-T47D;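 also: assay medium was RPMI with 10% FBS and 0.2 units/ml bovine insulin, without phenol red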
Details: for IC50: Homo sapiens, T47D, 1 h; for pIC50: read-out: T47D pAKT IC50, T47D.1 cells, pAKT (S473) HTRF, 1 hour
[1] = read-out: T47D pAKT IC50 (nM), T47D.1 cells, pAKT (S473) HTRF, 1 hour

Compound	IC50 [1] [nM]	also measured
Cc1c([C@@H](NC(=O)Nc2cccc(-c3nnnn3C)c2)C(C)C)oc2ccc(F)cc12 [Compound 125, (S)-1-(1-(5-fluoro-3-methylbenzofuran-2-yl)-2-methylpropyl)-3-(3-(1-methyl-1H-tetrazol-5-yl)phenyl)urea]	1000 to 5000	–
Cc1c([C@@H](NC(=O)Nc2ccc(Cl)c(S(C)(=O)=O)c2)C(C)C)oc2ccc(F)cc12 [Compound 126, (S)-1-(4-chloro-3-(methylsulfonyl)phenyl)-3-(1-(5-fluoro-3-methylbenzofuran-2-yl)-2-methylpropyl)urea]	1000 to 5000	–
Cc1c([C@@H](NC(=O)Nc2cnc(N3CC(S(C)(=O)=O)C3)nc2)C(C)C)oc2ccc(F)cc12 [Compound 128, (S)-1-(1-(5-fluoro-3-methylbenzofuran-2-yl)-2-methylpropyl)-3-(2-(3-(methylsulfonyl)azetidin-1-yl)pyrimidin-5-yl)urea]	1000 to 5000	–
Cc1c([C@@H](NC(=O)Nc2cnc(NCC(N)=O)nc2)C(C)C)oc2ccc(F)cc12 [Compound 134, (S)-2-((5-(3-(1-(5-fluoro-3-methylbenzofuran-2-yl)-2-methylpropyl)ureido)pyrimidin-2-yl)amino)acetamide]	< 1000	–
Cc1c([C@@H](NC(=O)Nc2cnc(N3CC4(COC4)C3)nc2)C(C)C)oc2ccc(F)cc12 [Compound 135]	< 1000	–
Cc1c([C@@H](NC(=O)Nc2cnc(NC3COC3)nc2)C(C)C)oc2ccc(F)cc12 [Compound 136]	< 1000	–
Cc1c([C@@H](NC(=O)Nc2cnc(NCCCO)nc2)C(C)C)oc2ccc(F)cc12 [Compound 137]	< 1000	–
COC1CN(c2ncc(NC(=O)N[C@H](c3oc4ccc(F)cc4c3C)C(C)C)cn2)C1 [Compound 138]	< 1000	–
Cc1c([C@@H](NC(=O)Nc2cnc(N3CCNC(=O)C3)nc2)C(C)C)oc2ccc(F)cc12 [Compound 139]	< 1000	–
Cc1c([C@@H](NC(=O)Nc2cnc(N3CCC(O)CC3)nc2)C(C)C)oc2ccc(F)cc12 [Compound 140]	< 1000	–
Cc1c([C@@H](NC(=O)Nc2cnc(N3CCC(C)(O)CC3)nc2)C(C)C)oc2ccc(F)cc12 [Compound 141]	< 1000	–
Cc1c([C@@H](NC(=O)Nc2cnc(NCC(C)(C)O)nc2)C(C)C)oc2ccc(F)cc12 [Compound 142]	< 1000	–
Cc1c([C@@H](NC(=O)Nc2cnc(NC[C@@H](C)O)nc2)C(C)C)oc2ccc(F)cc12 [Compound 143]	< 1000	–
CCC1(O)CN(c2ncc(NC(=O)N[C@H](c3oc4ccc(F)cc4c3C)C(C)C)cn2)C1 [Compound 144]	< 1000	–
Cc1c([C@@H](NC(=O)Nc2cnc(N3CCSCC3)nc2)C(C)C)oc2ccc(F)cc12 [Compound 145, 3-[(1S)-1-(5-fluoro-3-methyl-1-benzofuran-2-yl)-2-methylpropyl]-1-[2-(thiomorpholin-4-yl)pyrimidin-5-yl]urea]	< 1000	–
Cc1c([C@@H](NC(=O)Nc2cnc(N3CCS(=O)(=O)CC3)nc2)C(C)C)oc2ccc(F)cc12 [Compound 146, 1-[2-(1,1-dioxo-1lambda6-thiomorpholin-4-yl)pyrimidin-5-yl]-3-[(1S)-1-(5-fluoro-3-methyl-1-benzofuran-2-yl)-2-methylpropyl]urea]	< 1000	–
Cc1c([C@@H](NC(=O)Nc2cnc(N3CCS(=N)(=O)CC3)nc2)C(C)C)oc2ccc(F)cc12 [Compound 147, 3-[(1S)-1-(5-fluoro-3-methyl-1-benzofuran-2-yl)-2-methylpropyl]-1-[2-(1-imino-1-oxo-1lambda6-thiomorpholin-4-yl)pyrimidin-5-yl]urea]	< 1000	–
COc1ncc(NC(=O)N[C@H](c2oc3ccc(F)cc3c2C)C(C)C)cn1 [Compound 150, (S)-1-(1-(5-fluoro-3-methylbenzofuran-2-yl)-2-methylpropyl)-3-(2-methoxypyrimidin-5-yl)urea]	< 1000	–
Cc1c([C@@H](NC(=O)Nc2cnc(OCCO)nc2)C(C)C)oc2ccc(F)cc12 [Compound 151, (S)-1-(1-(5-fluoro-3-methylbenzofuran-2-yl)-2-methylpropyl)-3-(2-(2-hydroxyethoxy)pyrimidin-5-yl)urea]	< 1000	–
Cc1c([C@@H](NC(=O)Nc2cnc(OCC3(O)CC3)nc2)C(C)C)oc2ccc(F)cc12 [Compound 152]	< 1000	–
CC(=O)Nc1ncc(NC(=O)N[C@H](c2oc3ccc(F)cc3c2C)C(C)C)cn1 [Compound 159]	–	IC50 (read-out: T47D pAKT IC50 (nM)): < 1000 nM
Cc1c([C@@H](NC(=O)Nc2cnc3nccn3c2)C(C)C)oc2ccc(F)cc12 [Compound 160, (S)-1-(1-(5-fluoro-3-methylbenzofuran-2-yl)-2-methylpropyl)-3-(imidazo[1,2-a]pyrimidin-6-yl)urea]	< 1000	–

Compound	IC50 [1] [nM]	also measured
Cc1c([C@@H](NC(=O)Nc2cnc(N3CCNC3=O)nc2)C(C)C)oc2ccc(F)cc12 [Compound 161, 3-[(1S)-1-(5-fluoro-3-methyl-1-benzofuran-2-yl)-2-methylpropyl]-1-[2-(2-oxoimidazolidin-1-yl)pyrimidin-5-yl]urea]	< 1000	–
COC(=O)Nc1ncc(NC(=O)N[C@H](c2oc3ccc(F)cc3c2C)C(C)C)cn1 [Compound 162, methyl N-[5-({[(1S)-1-(5-fluoro-3-methyl-1-benzofuran-2-yl)-2-methylpropyl]carbamoyl}amino)pyrimidin-2-yl]carbamate]	< 1000	–
CNC(=O)C1CN(c2ncc(NC(=O)N[C@H](c3oc4ccc(F)cc4c3C)C(C)C)cn2)C1 [Compound 163, 1-[5-({[(1S)-1-(5-fluoro-3-methyl-1-benzofuran-2-yl)-2-methylpropyl]carbamoyl}amino)pyrimidin-2-yl]-N-methylazetidine-3-carboxamide]	< 1000	–
Cc1c([C@@H](NC(=O)Nc2cnc(N3CC4(CCO4)C3)nc2)C(C)C)oc2ccc(F)cc12 [Compound 164, 3-[(1S)-1-(5-fluoro-3-methyl-1-benzofuran-2-yl)-2-methylpropyl]-1-(2-{1-oxa-6-azaspiro[3.3]heptan-6-yl}pyrimidin-5-yl)urea]	< 1000	–
Cc1c([C@@H](NC(=O)Nc2cnc(N3CC4(CCCO4)C3)nc2)C(C)C)oc2ccc(F)cc12 [Compound 165, 3-[(1S)-1-(5-fluoro-3-methyl-1-benzofuran-2-yl)-2-methylpropyl]-1-(2-{5-oxa-2-azaspiro[3.4]octan-2-yl}pyrimidin-5-yl)urea]	< 1000	–
Cc1c([C@@H](NC(=O)Nc2cnc(N3CC4(CNC(=O)CO4)C3)nc2)C(C)C)oc2ccc(F)cc12 [Compound 166, 3-[(1S)-1-(5-fluoro-3-methyl-1-benzofuran-2-yl)-2-methylpropyl]-1-(2-{7-oxo-5-oxa-2,8-diazaspiro[3.5]nonan-2-yl}pyrimidin-5-yl)urea]	< 1000	–
Cc1c([C@@H](NC(=O)Nc2cnc(N3CC(OC(F)F)C3)nc2)C(C)C)oc2ccc(F)cc12 [Compound 167, 1-{2-[3-(difluoromethoxy)azetidin-1-yl]pyrimidin-5-yl}-3-[(1S)-1-(5-fluoro-3-methyl-1-benzofuran-2-yl)-2-methylpropyl]urea]	< 1000	–
Cc1c([C@@H](NC(=O)Nc2cnc(N3CC4(COC4)C3)nc2)C(F)(F)F)oc2ccc(F)cc12 [Compound 168, (R)-1-(2-(2-oxa-6-azaspiro[3.3]heptan-6-yl)pyrimidin-5-yl)-3-(2,2,2-trifluoro-1-(5-fluoro-3-methylbenzofuran-2-yl)ethyl)urea]	< 1000	–
Cc1c([C@@H](NC(=O)Nc2cnc(N3C[C@H](O)[C@H]3C)nc2)C(F)(F)F)oc2ccc(F)cc12 [Compound 169]	< 1000	–
Cc1c([C@@H](NC(=O)Nc2cnc(N3C[C@@H](O)[C@@H]3C)nc2)C(F)(F)F)oc2ccc(F)cc12 [Compound 170]	< 1000	–
C[C@@H]1[C@@H](O)CN1c1ncc(NC(=O)NC(c2cc3cc(F)cc(F)c3o2)C(F)(F)F)cn1 (stereo partly drawn) [Compound 173, 3-[1-(5,7-difluoro-1-benzofuran-2-yl)-2,2,2-trifluoroethyl]-1-{2-[(2R,3S)-3-hydroxy-2-methylazetidin-1-yl]pyrimidin-5-yl}urea]	–	pIC50: < 5.30
C[C@@H]1[C@@H](O)CN1c1ncc(NC(=O)NC(c2cc3cc(F)cc(F)c3o2)C(F)(F)F)cn1 (stereo partly drawn) [Compound 174, 3-[1-(5,7-difluoro-1-benzofuran-2-yl)-2,2,2-trifluoroethyl]-1-{2-[(2R,3S)-3-hydroxy-2-methylazetidin-1-yl]pyrimidin-5-yl}urea]	–	pIC50: > 6.00
Cc1c(C(NC(=O)Nc2cnc(N3C[C@@H](O)[C@@H]3C)nc2)C(F)(F)F)oc2c(F)cc(F)cc12 (some centres unmarked) [Compound 175]	–	pIC50: > 6.00
Cc1c(C(NC(=O)Nc2cnc(N3C[C@@H](O)[C@@H]3C)nc2)C(F)(F)F)oc2c(F)cc(F)cc12 (some centres unmarked) [Compound 176]	–	pIC50: < 5.30
Cc1c(C(NC(=O)Nc2ccc(N)nc2)C(F)(F)F)oc2c(F)cc(F)cc12 (centres unmarked) [Compound 181]	–	pIC50: < 5.30
Cc1c(C(NC(=O)Nc2ccc(N)nc2)C(F)(F)F)oc2c(F)cc(F)cc12 (centres unmarked) [Compound 182]	–	pIC50: > 6.00
Cc1c([C@@H](NC(=O)Nc2cnc(NCC(C)(C)O)nc2)C(F)(F)F)oc2c(F)cc(F)cc12 [Compound 183]	–	pIC50: > 6.00
Cc1c([C@H](NC(=O)Nc2cnc(NCC(C)(C)O)nc2)C(F)(F)F)oc2c(F)cc(F)cc12 [Compound 184]	–	pIC50: < 5.30
Cc1c([C@H](NC(=O)Nc2ccc3[nH]ncc3c2)C(F)(F)F)oc2c(F)cc(F)cc12 [Compound 193, 3-[(1S)-1-(5,7-difluoro-3-methyl-1-benzofuran-2-yl)-2,2,2-trifluoroethyl]-1-(1H-indazol-5-yl)urea]	> 5000	–
Cc1c([C@@H](NC(=O)Nc2ccc3[nH]ncc3c2)C(F)(F)F)oc2c(F)cc(F)cc12 [Compound 194, 3-[(1R)-1-(5,7-difluoro-3-methyl-1-benzofuran-2-yl)-2,2,2-trifluoroethyl]-1-(1H-indazol-5-yl)urea]	< 1000	–
Cc1c([C@@H](NC(=O)Nc2cnc(N3CC(C(C)(C)O)C3)nc2)C(F)(F)F)oc2c(F)cc(F)cc12 [Compound 205]	< 1000	–
Cc1c([C@H](NC(=O)Nc2cnc(N3CC(C(C)(C)O)C3)nc2)C(F)(F)F)oc2c(F)cc(F)cc12 [Compound 206]	> 5000	–
